This is an account of results in patent US20210392889A1, “COMPOSITIONS COMPRISING PYRIDINE CARBOXYLATE HERBICIDES WITH PDS INHIBITOR HERBICIDES” (Corteva Agriscience LLC, priority 2018, published 2021).

What all share (assay): Greenhouse postemergence herbicidal effect, visual injury after 20-22 d
Holding throughout (type): in vivo

In test [1] the test system is poinsettia (EPHHL, Euphorbia heterophylla). An outline of the steps: (§1)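 Seedlings are raised at about 23 °C day/22 °C night under a 14 h photoperiod until the second or third true leaf. They are then sprayed with herbicide mixtures in 1.25% v/v oil at 187 L/ha and watered only from below. Injury relative to blank-treated plants is judged by eye on a 0–100% scale.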
The subject of test [2] is broad-leaf dock (RUMOB, Rumex obtusifolius). Particulars: Table 4. Put shortly:
as §1

Test [3] has as its system winter rape (BRSNW, Brassica napus). Particulars: for visual injury: Table 1. An outline of the steps:
as §1

The subject of test [4] is common sunflower (HELAN, Helianthus annuus). An outline of the steps:
as §1

With `N#CCOC(=O)c1nc(-c2ccc3cc[nH]c3c2F)c(F)c(N)c1Cl` [Compound A, cyanomethyl 4-amino-3-chloro-5-fluoro-6-(7-fluoro-1H-indol-6-yl)pyridine-2-carboxylate], the “visual injury Obs” value is recorded as 91% in test [1] (7.5 g/ha, Table 5); 91% in test [1] (7.5 g/ha, Table 6); 83% in test [1] (10 g/ha, Table 5); 83% in test [1] (10 g/ha, Table 6); 8% in test [2] (7.5 g/ha); 10% in test [2] (10 g/ha). Further, the “visual injury Obs” value was determined as 63% in test [3] (7.5 g/ha, Table 7); 60% in test [3] (7.5 g/ha, Table 8); 68% in test [3] (10 g/ha, Table 7); 60% in test [3] (10 g/ha, Table 8); 75% in test [3] (15 g/ha, Table 8); 83% in test [4] (7.5 g/ha, Table 5). Besides, the “visual injury Obs” value in test [4] (7.5 g/ha, Table 6) is on record as 83%; in test [4] (10 g/ha, Table 5) it was 88%; in test [4] (10 g/ha, Table 6), 88%. The visual injury in test [3] (7.5 g/ha) was determined as 35%; in test [3] (10 g/ha) it was 43%.
